In ChEMBL document CHEMBL1158890, “Complement-inhibiting iridoids from Morinda morindoides” (J Nat Prod, 2003) one finds IC50, Activity and inhibition data, which are given here for twelve compounds.

Activity calls are given as the source filed them. The rule behind the calls is not given here.

The nature of test [1]: Inhibition of classical complement pathway activation by complement modulation test.
Test [2] can be described thus: Inhibition of alternative complement pathway activation by complement modulation test.
Test [3] is described as follows: Inhibition of classical complement pathway activation at 4 uM assessed as complement modulation test.
Test [4] in a line: Inhibition of classical complement pathway activation at 4 uM in presence of beta glucosidase by complement modulation test.
Test [5] can be described thus: Inhibition of classical complement pathway activation at 6.6 uM assessed as complement modulation test.

With `COC(=O)C1=CO[C@H](O[C@@H]2O[C@H](CO)[C@@H](O)[C@H](O)[C@H]2O)[C@H]2[C@@H]1C=C[C@@]21C=C(C(=O)c2ccc(O)cc2)C(=O)O1` [DEHYDROGAERTNEROSIDE], the IC50 (usually the concentration at which inhibition is half-maximal) in test [1] was > 400 µM. Further, the outcome in test [2] was inactive. For `COC(=O)C1=CO[C@H](O[C@@H]2O[C@H](CO)[C@@H](O)[C@H](O)[C@H]2O)[C@H]2[C@@H]1[C@@H]1O[C@@H]1[C@@]21C=C(C(O)c2ccc(O)c(OC)c2)C(=O)O1` (stereo partly specified), the result in test [2] was inactive. For `OCC1=C[C@@H](O)[C@@H]2C=CO[C@@H](O[C@@H]3O[C@H](CO)[C@@H](O)[C@H](O)[C@H]3O)[C@H]12`, the inhibition (usually the drop in the measured response relative to a control, in per cent) in test [3] came out at 21.7%; in test [4], 89.3%. As for `COC(=O)C1=CO[C@H](O[C@@H]2O[C@H](CO)[C@@H](O)[C@H](O)[C@H]2O)[C@H]2[C@@H]1C=C[C@@]21C=C(C(O)c2ccc(O)c(OC)c2)C(=O)O1` (stereo partly specified) [METHOXYGAERTNEROSIDE], the IC50 in test [1] is > 1000 µM. In test [2], the result was inactive.

For `COC(=O)C1=CO[C@@H](O)[C@@H]2C(CO)=CC[C@H]12`, the inhibition in test [5] was 75.3%.

In the case of `O=C(O)C1=CO[C@@H](O[C@@H]2O[C@H](CO)[C@@H](O)[C@H](O)[C@H]2O)[C@@H]2C(CO)=CC[C@H]12`, the inhibition in test [3] was found to be 14.3%; in test [4], 87.3%. For `COC(=O)C1=CO[C@@H](O[C@@H]2O[C@H](CO)[C@@H](O)[C@H](O)[C@H]2O)[C@@H]2C(CO)=CC[C@H]12`, the inhibition in test [3] was found to be 23%. Turning to `COC(=O)C1=CO[C@H](O[C@@H]2O[C@H](COC(C)=O)[C@@H](O)[C@H](O)[C@H]2O)[C@H]2[C@@H]1C=C[C@@]21C=C(C(O)c2ccc(O)cc2)C(=O)O1` (stereo partly specified) [ACETYLGAERTNEROSIDE], the IC50 in test [1] stood at 71 µM. In test [2], the result was inactive.

`COC(=O)C1=CO[C@H](O[C@@H]2O[C@H](CO)[C@@H](O)[C@H](O)[C@H]2O)[C@H]2[C@@H]1[C@@H]1O[C@@H]1[C@@]21C=C(C(O)c2ccc(O)cc2)C(=O)O1` (stereo partly specified) [EPOXYGAERTNEROSIDE]: the IC50 in test [1] is > 1000 µM. The result in test [2] was inactive.

For the compound `COC(=O)C1=CO[C@@H](O[C@@H]2O[C@H](CO)[C@@H](O)[C@H](O)[C@H]2O)[C@H]2[C@@H]1C=C[C@@]21C=C(C(=O)c2ccc(O)c(OC)c2)C(=O)O1` [DEHYDROMETHOXYGAERTNEROSIDE], in test [1], the IC50 was > 400 µM. For the same compound, in test [2], the outcome was inactive.

As to `COC(=O)C1=CO[C@H](O[C@@H]2O[C@H](CO)[C@@H](O)[C@H](O)[C@H]2O)[C@H]2[C@@H]1C=C[C@@]21C=C(C(O)c2ccc(O)cc2)C(=O)O1` (stereo partly specified) [GAERTNEROSIDE], the IC50 in test [1] came out at 58 µM. Further, the result in test [2] was inactive. The corresponding values for `O=C(O)C1=CO[C@H](O[C@@H]2O[C@H](CO)[C@@H](O)[C@H](O)[C@H]2O)[C@H]2[C@@H]1C=C[C@@]21C=C(C(O)c2ccc(O)cc2)C(=O)O1` (stereo partly specified) [GAERTNERIC ACID] are 69 µM and “inactive”.
